From PubChem BioAssay (NCI)
“And” between values parts separate entries of the source, which are not always exact repeats. Equal values may be shown once.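 Exposure lasted 48 hours, with cells grown in 96-well plates and compounds tested at five concentrations. GI50: concentration for 50% inhibition of growth. TGI marks complete inhibition of growth.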

Legend:
Test in all cases: inhibition of tumour cell growth, NCI panel, 48 h
SK-MEL-2 melanoma = tested on: SK-MEL-2 melanoma
NCI-H522 lung = tested on: NCI-H522 lung
HOP-62 NSCLC = tested on: HOP-62 NSCLC
SN12C renal = tested on: SN12C renal
SK-MEL-28 melanoma = tested on: SK-MEL-28 melanoma
DU-145 prostate = tested on: DU-145 prostate
IGROV1 ovarian = tested on: IGROV1 ovarian
HS 578T breast = tested on: HS 578T breast
OVCAR-8 ovarian = tested on: OVCAR-8 ovarian
OVCAR-5 ovarian = tested on: OVCAR-5 ovarian

SMILES	GI50 (SK-MEL-2 melanoma) [µM]	TGI (SK-MEL-2 melanoma) [µM]	GI50 (NCI-H522 lung)	TGI (NCI-H522 lung)	GI50 (HOP-62 NSCLC) [µM]	TGI (HOP-62 NSCLC)	GI50 (SN12C renal) [µM]	TGI (SN12C renal)	GI50 (SK-MEL-28 melanoma) [µM]	TGI (SK-MEL-28 melanoma)	GI50 (DU-145 prostate) [µM]	TGI (DU-145 prostate)	GI50 (IGROV1 ovarian) [µM]	TGI (IGROV1 ovarian)	GI50 (HS 578T breast) [µM]	TGI (HS 578T breast) [µM]	GI50 (OVCAR-8 ovarian) [µM]	TGI (OVCAR-8 ovarian)	GI50 (OVCAR-5 ovarian) [µM]	TGI (OVCAR-5 ovarian)
C/C(=N/O)c1ccc2c(c1)/C(=N/O)c1ccccc1-2	23.1	48	17.9 µM	35.2 µM	25	56.4 µM	19.8	44.5 µM	17.9	39.9 µM	26.4	71 µM	22.3	41.1 µM	29.4	99.2	21.4	46.4 µM	22.8	53.5 µM
COc1cc(/C=C/C(=O)N2CCC=CC2=O)cc(OC)c1OC	2.53	7.09	1.8 µM	3.75 µM	6.93	22.2 µM	2.64	7.84 µM	2.21	5.53 µM	4.05	18.6 µM	2.21	11.2 µM	5.36	43.6	2.86	8.17 µM	2.77	8.68 µM
O=C(/C=C/C(Cl)(Cl)Cl)Nc1ccc(Cl)cc1	–	18.1	–	1.43 µM	–	9.95 µM	–	25.8 µM	–	35.1 µM	–	30.6 µM	–	1.82 µM	–	54.3	–	> 77.6 µM	–	27.5 µM
NC(=O)CC1(O)C=C(Br)C(=O)C(Br)=C1	5.21	18.4	0.326 µM	1.44 µM	26.1	> 61.2 µM	9.05	23.4 µM	1.87	3.7 µM	6.05	19 µM	6.57	30 µM	17.8	46	2.88	9.42 µM	8.08	21.4 µM
COc1cccc(/C=C/c2ccnc3ccccc23)c1OC	–	> 10	–	> 10 µM	–	> 10 µM	–	> 10 µM	–	> 10 µM	–	> 10 µM	–	> 10 µM	–	> 10	–	> 10 µM	–	> 10 µM
NC1=NC(=O)/C(=C/c2ccc3ncccc3c2)S1	> 20.7	> 25	> 18.4 µM	> 25 µM	> 25	> 25 µM	> 25	> 25 µM	> 25	> 25 µM	> 25	> 25 µM	> 25	> 25 µM	> 25	> 25	> 25	> 25 µM	> 25	> 25 µM
CCOc1ccc2c(c1)CN(Cc1ccc(Cl)cc1)CO2	18	34	15.9 µM	34 µM	26.2	> 100 µM	25.9	> 100 µM	14.4	28.4 µM	22.8	53.2 µM	23	63.7 µM	18.2	53.7	18	38.3 µM	17.9	46.2 µM
O=C1C=CC(=Nc2cccc3c(N=C4C=CC(=O)O4)cccc23)O1	–	> 100	–	34.3 µM	–	> 100 µM	–	77.9 µM	–	> 100 µM	–	> 100 µM	–	> 100 µM	–	> 100	–	41.1 µM	–	> 100 µM
CCCCCCCCCCCCCCCCCCOc1ccccc1CC(=O)OCC[N+](CC)(CC)CC	1.28	3.13	1.53 µM	6.84 µM	1.76	8.32 µM	1.3	5.68 µM	1.9	7.55 µM	2.07	7.99 µM	0.923	1.97 µM	1.34	4.55	1.69	8.3 µM	2	8.52 µM
COc1cccc(C2=C(c3cn(C)c4cc(F)ccc34)C(=O)NC2=O)c1	> 19.4	> 25	> 15.9 µM	> 25 µM	> 25	> 25 µM	> 21.5	> 25 µM	> 25	> 25 µM	> 25	> 25 µM	> 25	> 25 µM	> 24	> 25	> 18.2	> 25 µM	> 25	> 25 µM
COc1ccc(C(=O)O[C@H]2[C@H](O[C@H]3[C@@H](O)COC(O[C@H]4C[C@H]5[C@@H]6CC=C7C[C@@H](O)CC[C@]7(C)[C@H]6CC[C@]5(C)[C@H]4[C@H](C)C(=O)CCC(C)C)[C@@H]3OC(C)=O)OC[C@@H](O)[C@@H]2O)c(C)c1 (some centres undefined)	< 0.01	3.23	0.0114 µM	0.607 µM	< 0.01	7.51 µM	11.7	29.7 µM	< 0.01	< 0.01 µM	1.26	36.4 µM	0.0723	48.9 µM	< 0.01	0.0282	20.1	> 100 µM	0.103	26.9 µM
CCOC(=O)/C(C#N)=C1\SS/C(=C(/C#N)C(=O)OCC)S1	18.7	40.2	2.47 µM	7.59 µM	26.1	86.7 µM	19.9	43.3 µM	18.9	34.1 µM	18.2	33.6 µM	14.2	33 µM	47.9	> 100	20.3	41.1 µM	22.4	42.8 µM
CC(C)(C)NC(=O)[C@H]1CC[C@H]2[C@@H]3CC[C@H]4NC(=O)C=C[C@]4(C)[C@H]3CC[C@]12C	–	> 100	23.2 µM and > 100 µM	> 100 µM	> 100	> 100 µM	> 100	> 100 µM	> 100	> 100 µM	> 100	> 100 µM	> 100	> 100 µM	> 100	> 100	> 100	> 100 µM	> 100	> 100 µM
O=C(Nc1cccc(-n2cc(-c3ccncc3)c(-c3ccc(O)c(Cl)c3)n2)c1)c1cc(C(F)(F)F)cc(C(F)(F)F)c1	9.33	34	1.56 µM	12.3 µM	17.5	> 50 µM	7.04	> 50 µM	10.3	> 50 µM	12.6	> 50 µM	11.2	> 50 µM	5.19	> 50	4.88	> 50 µM	8.33	37.7 µM
CC(c1ccccc1)[C@@H](C(=O)Nc1ccc(I)cc1F)N1C(=O)N[C@H](c2ccc(OC[C@H](O)CO)cc2)C1=O (some centres undefined)	0.158	1.51	> 17.8 µM	> 25 µM	17	> 25 µM	6.14	> 25 µM	0.026	> 25 µM	15.3	> 25 µM	2.04	> 25 µM	16.3	> 25	> 15.9	> 25 µM	1.03	> 25 µM
Nc1nnnc2nc[nH]c12	1.06	42.4	2.02 µM	17 µM	0.907	> 58 µM	2.25	> 100 µM	–	> 45.8 µM	0.8	> 100 µM	4.75	> 100 µM	3.51	> 65.5	1.26	> 100 µM	0.623	> 100 µM
C=C1C(=O)O[C@H]2[C@H]1CC/C(Cn1cc(-c3cccc(Cl)c3)nn1)=C\CC[C@@]1(C)O[C@@H]21	1.66	3.28	0.291 µM	1.09 µM	1.94	3.68 µM	1.4	3.35 µM	0.351	1.27 µM	1	2.16 µM	0.73	2.41 µM	2.26	5.56	1.31	2.85 µM	1.21	2.78 µM
COc1ccc2nc3cc([N+](=O)[O-])ccc3c(NNc3ccccc3)c2c1	–	> 78.9	2.4 µM	18.5 µM and 50.9 µM	13.1	29.7 µM and > 100 µM	18.9	71.1 µM and > 74.9 µM	15.3	34.9 µM and > 100 µM	19.7	77.8 µM and > 100 µM	15.4	68.6 µM and 27.9 µM	–	> 100	6.77	22.5 µM and > 100 µM	14.9	47.2 µM and > 100 µM
CCOC(=O)c1c(NC(=O)c2ccccc2)sc2c3c(ccc12)OCN(C)C3	2.07	4.02	1.66 µM	3.62 µM	1.77	3.82 µM	1.63	3.22 µM	1.71	3.15 µM	1.67	3.12 µM	1.64	3.18 µM	1.9	4.16	–	–	1.71	3.16 µM
